Assay results published in patent US4416892A, “Method of treating hypersensitivity disease with benzoxazole derivatives” (Lilly Industries Limited, priority 1981, dated 1983).

What was measured:
SRS-A release = test: guinea-pig chopped lung test (inhibition of SRS-A / mediator release); type: cell-based; conditions: Cavia porcellus, 0.25 h; 3×10^-5 M; ovalbumin-sensitised guinea pig lung, antigen challenge, 37° C., 15 mins; mean of four samples
Experimental: These tests are well-recognised as indicative of anti-allergy activity in humans and mammals in general. Compounds were tested in the guinea pig chopped lung test referred to above. […] Male albino guinea pigs (250-350 g) were sensitised with ovalbumin (100 mg s/c+100 mg i p.) and three weeks later killed, their lungs removed and perfused clear of blood with Tyrode's solution. The lungs were chopped into 0.5 mm cubes and divided into 400 mg aliquots. After washing and equilibration at 37° C., the aliquots were challenged with antigen in the presence or absence of the test compound. One control group was not challenged and was used to assess non-anaphylactic SRS-A release. Following incubation with rocking at 37° C. for 15 mins, each supernatant was removed and bio-assayed. Results are expressed as the percentage inhibition of SRS-A release after exposure to 3×10^-5M solutions of test compound. Each result is the mean of four samples.

allergic bronchospasm = test: Herxheimer test (allergic bronchospasm in sensitised guinea pigs); type: in vivo, guinea pig; conditions: dose 50 (first column; head is a drawing), oral, 4 hours before ovalbumin challenge, mepyramine 0.5 mg/kg s.c.; ratio of 1.4 or greater significant
Experimental: Male guinea pigs were sensitised with ovalbumin and then exposed to ovalbumin aerosol (1% w/v solution) in an observation chamber. The animals were kept in the exposure chamber until symptoms of respiratory distress, terminating in a characteristic convulsive cough. The time of exposure is the "collapse time". […] Accordingly, the response to each compound in the presence of mepyramine (0.5 mg/kg s.c.) given half an hour before challenge was studied. The compound itself was given orally four hours before antigen challenge. A protection ratio of 1.4 or greater is considered significant.

Compound	inhibition at 30 µM (SRS-A release)	protection ratio (allergic bronchospasm)
CC(C(=O)O)c1ccc2nc(-c3ccc(Cl)cc3)oc2c1 (stereo not drawn) [2-(4-chlorophenyl)-α-methyl-6-benzoxazoleacetic acid]	38%	–
CC(C(=O)O)c1ccc2nc(-c3ccccc3Cl)oc2c1 (stereo not drawn) [2-(2-chlorophenyl)-α-methyl-6-benzoxazoleacetic acid]	16%	–
CC(C(=O)O)c1ccc2oc(-c3ccc(Cl)cc3)nc2c1 (stereo not drawn) [2-(4-chlorophenyl)-α-methyl-5-benzoxazoleacetic acid]	62%	2.7
CC(C(=O)O)c1ccc2oc(-c3cccc(C(F)(F)F)c3)nc2c1 (stereo not drawn) [2-(3-trifluoromethylphenyl)-α-methyl-5-benzoxazoleacetic acid]	27%	–
CC(C(=O)O)c1ccc2oc(-c3ccc(F)cc3)nc2c1 (stereo not drawn) [2-(4-fluorophenyl)-α-methyl-5-benzoxazoleacetic acid]	36%	–
